Measured values: a melting point compilation (Tetko et al.; mined from patent text by program, amines drawn as free bases though some values may be those of a salt)

Row | Structure (SMILES) | melting point [°C]
1 | COc1ccc(CNc2nc(SC)ncc2C(O)c2nccn2C)cc1Cl (stereo unspecified) | 179 to 180
2 | COc1cc2c(Nc3ccc(Cl)cc3F)ncnc2cc1OCCOc1cccnc1 | 188 to 190
3 | CCc1cccc(C)c1CNc1c(NC(C)(C)C)c(=O)c1=O | 240 to 244
4 | O=C1c2c(O)cccc2C(c2ccccc2)c2cccc(O)c21 | 193 to 194
5 | O=C(c1ccc2ncccc2c1)c1ccc2[nH]c(=O)nc(-c3cccc(Cl)c3)c2c1 | > 260
6 | COc1ccc2c(c1)CCc1c-2n(-c2ccccc2)c2ncccc2c1=O | 234 to 238
7 | CCCCCS(=O)(=O)NC(=O)/C=C/c1ccc(OCCOC)cc1Oc1ncc([N+](=O)[O-])cc1C | 148 to 150
8 | Cc1c(N2C(=O)C[C@@](O)(C3CC3)[C@@H]2C)ccc(C#N)c1Cl | 231 to 236
9 | CCOC(=O)c1cnc2c(c(C)nc3cc(C)nn32)c1Cl | 143 to 145
10 | CC1(C)Oc2ccc(C#N)cc2[C@@H](NC(=O)Nc2cccc(-c3ncno3)c2)[C@@H]1O | 168 to 170
11 | C[C@@H](N1CCN(C(=S)Nc2ccccc2)CC1)[C@](O)(Cn1cncn1)c1ccc(F)cc1F | 106 to 108
12 | CCCCCCCCNC(=O)CCBr | 48 to 55
13 | CNC(=O)c1cc(OC)c(C(=O)NC)c(NC(=O)CCl)c1OC | 228 to 229
14 | CC(C)Nc1ncnc2c1ncn2Cc1c(Cl)cccc1Cl | 109 to 110
15 | COC(=O)c1cc(N(C)C)cc(N(C)C)c1 | 86 to 88
16 | Cc1nc(NC(=O)c2cccnc2)sc1C(=O)NCc1ccccc1 | 224 to 226
17 | NC(=O)c1nccc(-c2ccc(Oc3ccc(F)cc3)cc2)n1 | 180 to 182
18 | Cc1cc(N2C=CC(O)CC2)nn2cnnc12 (stereo unspecified) | 171 to 173
19 | O=c1[nH]c2ccc(C=CCN3CCC(Cc4ccc(F)cc4)CC3)cc2o1 | 202 to 204
20 | C[C@]1(CN2CCN(Nc3ccc(C(F)(F)F)cc3)CC2)Cn2cc([N+](=O)[O-])nc2O1 | 192 to 195
21 | CC(C)N(CCCc1ccccc1)[C@H]1CC[C@H](c2ccc(O)cc2)CC1 | 146 to 154
22 | COc1ccc2c(=O)c(-c3ccc(C)cc3)coc2c1OC | 135
23 | O=C(O)Cc1c(C(=O)c2cc(CO)ccn2)[nH]c2ccc(Cl)cc12 | 218 to 219
24 | CC1=C(C(=O)OC(C)(C)C)C(c2ccccc2F)C(C(=O)OC(C)(C)C)=C(C)N1 | 201 to 202
25 | COc1cc(NS(=O)(=O)c2cccc(C(F)(F)F)c2)cc(OC)c1 | 78 to 81
26 | CCNC(=O)c1ccc2cc(-c3csc(N(C)S(=O)(=O)c4ccccc4)n3)c(=O)[nH]c2c1 | > 300

Row | Structure (SMILES) | melting point [°C]
27 | CN(C(=O)CNC(=O)OC(C)(C)C)c1ccc(OCC(=O)O)cc1 | 146 to 155
28 | O=C1C(=CO)COc2ccc(OCc3ccccc3)cc21 | 82 to 85
29 | COc1ccc2c(c1)C(C)(Cl)C(=S)N2 (stereo unspecified) | 202 to 204
30 | CC(C)C(NC(=O)OCCN1CCOCC1)C(=O)NC(Cc1ccccc1)C(O)C(Cc1ccccc1)NC(=O)C(NC(=O)OCc1ccccc1)C(C)C (stereo unspecified) | 159 to 161
31 | CCCCC(C)(C)C=CC(OC(C)=O)C1C(C)CC2OC(=O)CC21 (stereo unspecified) | 83 to 83.5
32 | Fc1ccc(-c2ncn(CCCCN3CCOCC3)c2-c2ccncc2)cc1 | 103 to 104
33 | CCCCCCCCCCCc1cc2ccc(C(=O)OC)cc2[nH]1 | 84 to 86
34 | Cc1cc(OC(=O)c2ccccc2)c2ccccc2c1O | 172 to 174
35 | Cc1nc(N)sc1CCC1CCCCC1 | 98 to 100
36 | COCOc1cccc(F)c1C#N | 53 to 55
37 | CCCNC(=O)N(C)Cc1cccc2c1CN(C1CCC(=O)NC1=O)C2=O (stereo unspecified) | 220 to 222
38 | CC(C(O)c1ccc2c(c1)CCCS2)N1CCC(n2c(=O)[nH]c3ccccc32)CC1 (stereo unspecified) | 232 to 235
39 | Cn1c(=O)c(=O)[nH]c2cccnc21 | 238 to 239
40 | O=S(=O)(CC(F)(F)F)Nc1cccc2c1CCCC2c1c[nH]cn1 (single isomer, unassigned; (+)) | > 260
41 | COC(=O)Cc1cc2c(cc1CC(=O)NCCc1cccc(OC)c1)OCO2 | 81 to 83
42 | O=C(CN1CCC(Cc2ccccc2)CC1)Nc1ccc2[nH]cnc2c1 | 185 to 189
43 | CC(C)Nc1ccc2c(c1)N1CCN=C1S2 | 128
44 | c1ccc2cc(N3CCN(Cc4n[nH]c5ccccc45)CC3)ncc2c1 | 214 to 215
45 | CCC(CC)n1nc(C)c2c(NN3CCc4cc(Br)cc(Br)c43)nc(C)nc21 | 190 to 191
46 | COc1ccc(-c2nc(Sc3ccc(Cl)cc3)[nH]c2-c2ccc(OC)cc2)cc1 | 121 to 122
47 | CC(=O)NCCn1ccc2c1-c1cccc(Cl)c1CC2 | 124 to 126
48 | CCNC(=O)Nc1ccc(C(O)(C(F)(F)F)C(F)(F)F)cc1C(=O)OCC | 144 to 146
49 | CN1CCN(C2=Nc3cc(Br)ccc3-n3ccc4cc(Br)cc2c43)CC1 | 158 to 159
50 | C[C@@H](CS(=O)C(F)(F)C(F)F)[C@](O)(Cn1cncn1)c1ccc(Cl)cc1Cl (stereo partly specified) | 153 to 155
51 | CCSC1COC(Cn2cncn2)(c2ccc(Cl)cc2Cl)C1 (stereo unspecified) | 64
52 | CN1C(=O)C(c2cccc(Br)c2)(c2cnn(CC(F)(F)F)c2)N=C1N (stereo unspecified) | 80 to 82

Row | Structure (SMILES) | melting point [°C]
53 | O=C(O)c1ccc(-c2nc(-c3ccc(OC(F)F)cc3)co2)cc1 | 261 to 262
54 | Cc1c(O)ccc2c1C(C)(C)CC2 | 92 to 93
55 | CN(C(=O)c1ccccc1NC(=O)N[C@@H](Cc1ccc(NC(=O)c2c(Cl)cccc2Cl)cc1)C(=O)O)c1ccccc1 | 178
56 | Cc1ccc(N2C(=O)C(O)=C(C(=O)c3ccc(CC(C)C)cc3)C2c2ccc(OC(F)(F)F)cc2)nn1 (stereo unspecified) | 260
57 | CCCc1nc2c(N)nc3cc(OCc4ccc(Cl)cc4)ccc3c2n1CC(C)C | 215 to 217
58 | Cc1ccnc(-c2ccc(C(F)(F)F)cc2)n1 | 50
59 | CCOC(=O)c1ccccc1NC(=O)C(F)(F)F | 78
60 | COCON1C(=O)C(=C/c2ccccc2)/C(=C\c2cc(OC)c(OC)c(OC)c2)C1=O | 175 to 177
61 | CCCCN1C(=O)CSC(=NOC(=O)NC)C1C (stereo unspecified) | 118 to 120
62 | C=CC(=O)C(CC1CCOCC1)c1ccc(S(=O)(=O)C2CC2)cc1 (stereo unspecified) | 92 to 93
63 | O=C(Nc1ccc2[nH]c(=S)oc2c1)C(=O)N1CCC(Cc2ccccc2)CC1 | 203
64 | Nc1noc2cc3c(cc12)C1(CO3)C(=O)N(Cc2ccccn2)c2ccccc21 (stereo unspecified) | 190 to 192
65 | CC(COc1ccc(CC(N)=O)cc1Cl)NCC(O)c1cccc(Cl)c1 (stereo unspecified) | 99 to 101
66 | CNCCCc1cc(C(=O)Nc2ccc(-c3ccc(C(C)=O)cc3)cc2)ccc1OC | 195 to 196
67 | C=CCc1cc(C=O)ccc1O | 66
68 | CC(C)(C)c1cc(CCc2ccccc2NC(=O)NC23CC4CC(CC(C4)C2)C3)cc(C(C)(C)C)c1O | 197 to 199
69 | Cc1cccc(-c2[nH]c(C(C)C)nc2-c2cccc(-c3ccc4c(c3)C(=O)CCS4(=O)=O)c2)n1 | 115 to 119
70 | O=C(c1cc(N2CCC3(CC2)OCCO3)ccn1)N(O)Cc1ccccc1 | 98 to 102
71 | CCC(C)(C)Nc1c(N(Cc2ccc(C#N)cc2Cl)C(C)=O)c(=O)c1=O | 150 to 151
72 | COc1ccc(C2(C#Cc3ccnc(N)n3)CCC(=O)CC2)cc1OC1CCCC1 | 68 to 70
73 | CC(C)(C)C(=O)C(CCCCOc1ccccc1)n1cncn1 (stereo unspecified) | 59 to 62
74 | O=C(Nc1ccc(C(F)(F)F)cc1)NC1CCN(S(=O)(=O)c2ccc(Cl)cc2)CC1 | 266 to 270
75 | CCC(OCC(F)(F)F)c1ccc(Cl)c2nc3n(c12)CCCN3c1ccc(OC)nc1C (stereo unspecified) | 124 to 126
76 | CNc1cc(OCC2CO2)ccc1[N+](=O)[O-] (stereo unspecified) | 113
77 | CC(SCC(=O)O)c1ccc(-c2ccccc2F)cc1 (stereo unspecified) | 125 to 127
78 | O=C(CCc1ccccc1)Nc1cc(C(=O)NCc2ccccc2)ccn1 | 177 to 179

Row | Structure (SMILES) | melting point [°C]
79 | FC(F)(F)c1nc(-c2ccc(Cl)cc2)c(-c2ccc(Cl)cc2)s1 | 101 to 102
80 | CCCCOC(=O)Nc1cccc(C(=O)C=CN(C)C)c1 | 115 to 116
81 | COc1ccc(NC(=O)N2CCN(CCc3ccc(-c4cccc(N)n4)cc3)CC2)cc1 | 182 to 184
82 | COC(=O)c1nc(-c2ccc(Cl)c(OC)c2F)nc2ncn(C)c12 | 197 to 198
83 | CCC(O)(c1ccc(OCc2cccc(C)n2)cc1)c1ccccc1C(F)(F)F (stereo unspecified) | 128 to 129
84 | COC(=O)NC(=O)NS(=O)(=O)c1ccc([N+](=O)[O-])cc1 | 150 to 158
85 | COc1ccc(-c2cc3c(Br)c(OC)ccc3o2)cc1 | 115 to 117
86 | Cc1ccc(CN2CCC(OC(=O)c3ccc(C)cc3)CC2)cc1 | 66 to 77
87 | NCC#CC1(Cl)C=CC=CC1C(=O)c1ccccc1Cl (stereo unspecified) | 81 to 82
88 | C[C@H](NC(=O)OCC1c2ccccc2-c2ccccc21)C(=O)O | 144 to 146
89 | COc1ccc2c(c1)c(CC(=O)NO)c(C)n2C(=O)c1ccc(Cl)cc1 | 181 to 183
90 | Cc1nnc2n1-c1ccccc1C(c1ccccc1Cl)OC2C (stereo unspecified) | 176 to 178
91 | CC(c1oc2ccccc2c(=O)c1-c1ccc(F)cc1)n1cnc2c(N)ncnc21 (stereo unspecified) | 210 to 212
92 | COC(=O)c1ccc(C#Cc2cncc(C3CCCN3C)c2)cc1 (stereo unspecified) | 97 to 98
93 | CCOC(=O)c1cc2c(=O)c3cc(C(C)CO)ccc3oc2nc1N (stereo unspecified) | 255 to 256
94 | CC(=CC(=O)O)C[N+](=O)[O-] | 85
95 | CCN(CC)C(=S)c1c(C)cccc1[Si](C)(C)C | 82 to 83
96 | CCCCNC(=O)C(C)n1cc(C)c(-c2ccccc2)n1 (stereo unspecified) | 82 to 84
97 | O=C(Nc1ccc(C(F)(F)F)cc1)N1CC(c2ncc(Cl)s2)C(c2ccc(F)cc2)=N1 (stereo unspecified) | 188 to 189
98 | COC(=O)[C@H](Cc1ccc(NC(=O)c2c(Cl)cccc2Cl)cc1)NC(=O)c1c(C)cccc1Cl | 244 to 245
99 | Cc1cccc(C)c1NC(=O)N(Cc1ccccc1)CC(c1ccccc1)c1ccccc1 | 205 to 208
100 | NC(=O)c1ccc(Cl)c(Br)c1 | 146 to 147
101 | O=C(O)CCCn1nnnc1S | 90 to 95
